From patent US10925974B2, “Adipose tissue-targeting polypeptide-verbascoside-nanogold particle derivative, preparation method and application thereof” (Affiliated Stomatological Hospital of Nanjing Medical …, priority 2018, dated 2021)
Marks after values point to notes of the source that are not given here. Ends that are not written are not given here.

What was measured:
[1] = Inhibition of weight gain of mice fed with high-fat feed; type: in vivo
Text: Experimental Animals: 3-4 weeks old male mice and feed provided by the Laboratory Animal Center of Nanjing Medical University, license No.: SCXK (Su) 2011-0003. The animals were randomly caged, with unlimited drink and feed. Experimental drugs: polypeptide-verbascoside-nanogold particle derivative (adipose tissue-targeting), polypeptide-verbascoside derivative, polypeptide-nanogold derivative, and verbascoside-nanogold derivative as experimental groups, and physiological saline for negative control. 2) Raising 60 male mice of 6 weeks old in the clean environment of Experimental Animal Center of Nanjing Medical University, at a temperature of (21±2) ° C., a humidity of (35±2) %, an intermittent illumination for 12 hours, with unlimited drink and feed; wherein the drinking water is distilled water prepared by the experimental animal center; 3) After 2-3 days of adaptive feeding, randomly selecting 10 mice as a blank control group provided with regular feed, while providing the remaining 50 rice with high fat feed (cholesterol 1 wt. %, lard 20 wt. %, bile salt 0.2 wt. %, and regular feed 78.8 wt. %); measuring the body weight of the mice in the two groups every 2 weeks; analyzing the obtained body weight data with statistical methods, and the results are shown in FIG. 3, wherein *P<0.05, **P<0.01, and ***P<0.001 indicate body weight data of the experimental group compared with those of the blank control group fed with regular feed; 4) Randomly dividing the obese mice fed with high-fat feed into several groups, with each group of 10 mice; injecting (exemplified by intraperitoneal injection) physiological saline (0.03 mL of physiological saline per 30 g body weight), polypeptide-verbascoside derivative (15 mg of derivative per kg body weight, dissolved in DMSO), polypeptide-nanogold derivative (15 mg of derivative per kg body weight, dissolved in DMSO), verbascoside-nanogold derivative (15 mg of derivative per kg body weight, dissolved in DMSO), and polypeptide-verbascoside-nanogold particle derivative (15 mg of derivative per kg body weight, dissolved in DMSO) at 9:30 am every day, respectively.

[2] = tested on: visceral fat and subcutaneous fat of mice; assay: Storage of visceral fat and subcutaneous fat of mice provided with high fat feed; type: in vivo
Description: 1) Providing an intraperitoneal administration to the high-fat-fed obese mice for 12 weeks according to the experimental procedure of Embodiment 3;
2) Fasting the mice of each group for 12 hours, and then anesthetizing with 3% pentobarbital sodium having a concentration of 45 mg/kg via intraperitoneal injection, and accurately weighing the mice;
3) Disinfecting routinely and performing laparotomy, rapidly extracting and weighing the adipose tissue around the kidney, adipose tissue around the mesentery, adipose tissue around the epididymis, and abdominal subcutaneous adipose tissue to obtain wet weights thereof (the abdominal subcutaneous adipose tissue range: abdomen below the rib arch and above the groin, both sides are bounded by the midaxillary line);
4) Calculating according to the following formula: wet weight of the abdominal adipose; total weight of the fat pad (g)=adipose tissue around the kidney+adipose tissue around the epididymis; body fat content=the total weight of the fat pad (g)/the total body weight of mice (g);

[3] = high fat feed mice, 15 mg/kg i.p. daily for 12 weeks, wet weight

polypeptide-verbascoside: ester of adipose tissue-targeting polypeptide CKGGRAKDC (C-terminal acyl chloride) with verbascoside sodium phenolate, per Embodiment 1 (not fully specified (C-terminus); cysteine pairing not given here)
Weight 6 weeks after administration ([1]; high fat feed mice, 15 mg/kg intraperitoneal injection every day, 6 weeks, n=10): 30.6 ± 0.3 g | Weight 12 weeks after administration ([1]; high fat feed mice, 15 mg/kg intraperitoneal injection every day, 12 weeks, n=10): 35.5 ± 1.6 g | Initial Weight ([1]; high fat feed obese mice, before administration (baseline), n=10): 29.3 ± 0.5** g | weight gains of mice ([1]; treatment for 6 weeks, compared with the model control group (#p<0.05)): significantly inhibited | Body weight ([2]; Table 3, high fat feed mice, 12 weeks, after 12 h fasting): 35.46 ± 1.57 g | Body weight ([2]; Table 4, high fat feed mice, 12 weeks): 35.26 ± 1.77 g | SF-FAT ([2]; abdominal subcutaneous fat, high fat feed mice, 12 weeks): 0.79 ± 0.12 g | Total weight of the fat pad ([2]; adipose tissues around kidney + around epididymis, high fat feed mice, 12 weeks): 2.27 ± 0.14 g | wet weight of the visceral adipose tissues of mice ([2]; after treatment, compared with the model control group (#p<0.05)): significantly reduced | Total weight of visceral adipose tissues ([2]; high fat feed mice, 15 mg/kg i.p. daily for 12 weeks, Table 2): 5.72 ± 0.17 g | Weight of visceral adipose tissues: Around epididymis [2, 3]: 1.21 ± 0.12 g | Weight of visceral adipose tissues: Around kidney [2, 3]: 0.61 ± 0.17 g | Weight of visceral adipose tissues: Around omentum and mesentery [2, 3]: 0.32 ± 0.05 g | SF-FAT/body weight ([2]; high fat feed mice, 12 weeks): 2.27 ± 0.23 | VF-FAT/SF-FAT ([2]; high fat feed mice, 12 weeks): 2.63 ± 0.29 | Body fat index ([2]; total weight of the fat pad / total body weight, high fat feed mice, 12 weeks): 6.13 ± 0.41 % | VF-FAT ([2]; visceral fat, Table 4, high fat feed mice, 12 weeks): 5.78 ± 0.17 g
